Assay results as given in patent US20180320177A1, “COMPOSITIONS AND METHODS FOR THE TREATMENT OF LIVER FIBROSIS” (UNIVERSITY OF CONNECTICUT, priority 2015, published 2018).

Assays:
HMGB2 = biological target: T1, HMGB2 (Homo sapiens, UniProt P26583); assay: Co-immunoprecipitation of acetylated / phosphorylated HMGB2 in LX-2 cells; format: cell-based; set-up: Total protein lysates were prepared from livers and cells in lysis buffer; endogenous in cells; host or cells: LX-2; settings: CCl4 and ICM for 24 hours (FIG. 5D)
T1 sequence (P26583 1-209): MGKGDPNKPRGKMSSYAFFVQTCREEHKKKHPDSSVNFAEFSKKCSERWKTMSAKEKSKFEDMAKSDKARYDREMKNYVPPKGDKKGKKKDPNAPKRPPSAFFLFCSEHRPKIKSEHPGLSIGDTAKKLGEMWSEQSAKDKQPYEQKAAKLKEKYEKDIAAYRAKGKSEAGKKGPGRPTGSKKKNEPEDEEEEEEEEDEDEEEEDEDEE
Method: Co-immunoprecipitation experiments: LX-2 cells were transfected with a vector expressing HA-CBP with X-treineGENE™ transfection reagent (Sigma). 24 hours later, cells were treated with CCl4 and ICM for 24 hours. Cells then washed 2 times with cold phosphate buffered saline (PBS), lysed in buffer (50 mM Tris HCl, pH 7.4, 150 mM NaCl, 1 mM EDTA, and 1% TRITON X-1.00, and protease inhibitor). Protein extracts were incubated with anti-phosphoserin antibody or anti-acetylated lysin antibody (Cell signaling technology) overnight at 4° C. Protein A/G beads were added to the supernatants and incubated for 4 hours at 4° C. The beads were washed five times in NP-40 lysis buffer. Immune complexes were eluted by SDS—sample buffer, resolved on 10% SDS-PAGE and proceeded for immunoblotting with the indicated antibody.

[1] = test system: pAKT and pERK1/2 activation; assay: pAKT and pERK1/2 activation and HMGB2 protein in primary stellate cells; format: cell-based, mouse; settings: stellate cells (FIG. 6E)
Method: Western Blotting: Total protein lysates were prepared from livers and cells in lysis buffer containing 50 mM Tris, pH 8.0, 1% Nonidet™ P-40, 150 mM NaCl, 0.5% sodium deoxycholate, 0.1% SDS with protease inhibitors (Thermo Fisher Scientific) and subjected to immunoblotting. Nuclear and cytoplasmic subcellular fractions were prepared using NE-PER nuclear and cytoplasmic extraction reagents (Pierce) according to the manufacturer's instructions. The blot was incubated with a primary antibody, followed by a secondary antibody conjugated to horseradish peroxidase. ECL kit (Pierce) was used to detect the reactivity. The following antibodies were obtained from Cell Signaling Technology: HMGB2, HMGB1, AKT, p-AKT, mTOR, p-mTOR, ERK1/2, pERK1/2, Raptor, Rictor, p53, p21, p-Bad, Smad4, p-Smad2/3, Lamin A/C, a-SMA, MMP2, MMP9, TIMP1, RhoA, Rho-GTP, Cdc42, Rac1/2/3. Anti-HA antibody and anti-beta actin antibody were purchased from Sigma and Santa Cruz Biotechnology, respectively.
Primary Mouse Hepatic Stellate Cells (HSCs) isolation and in vitro activation: Primary mouse HSCs were isolated from 8 to 12 weeks old wild type or Hmgb2^−/− mice, as described in the art with modifications. Briefly, mice were anesthetized with ketamine/xylazine mixture. The liver was perfused with Hank's balanced salt solution (HBSS) supplemented with 0.5 mM EGTA through the cannulated portal vein, followed by perfusion with HBSS supplemented with 0.5 mg/ml pronase (Sigma) and HBSS with 0.14 mg/ml collagenase (Sigma). The liver was dissected out from the mouse and dissociated cells were dispersed gently in HBSS. Primary HSC was isolated by three-layer discontinuous density gradient centrifugation with 25% and 50% percoll (Sigma) and plated on non-coated culture dishes in DMEM supplemented with 10% FBS, 100 IU/ml penicillin, and 100 μg/ml streptomycin. For culture-activated HSC studies, the medium of primary HSCs was replaced every day up to 7 days. For PDGF treatment, primary HSC cells were serum starved for 24 hr and then treated with PDFG for 3 or 5 days. […]

- HMGB2 phosphorylation by CCl4 (HMGB2): decreases
- HMGB2 acetylation by CBP/CCl4 (HMGB2; HA-CBP): decreases
Structure (SMILES): CC1(C)Oc2cc(O)ccc2C2C1=CCn1c(=O)n(-c3ccccc3)c(=O)n12 (centres unmarked) [ICM, inflachromene]
- HMGB2 protein [1]: reduces
- pAKR activation [1]: reduces
- pERk1/2 activation [1]: reduces
